Measured values from patent US9289446B2, “Myocardial perfusion imaging methods and compositions” (GILEAD SCIENCES, INC., priority 2002, dated 2016).

How the values were obtained:
[1] = system: coronary blood flow velocity (CBFv); assay: Example 1: open label study of CVT-3146 IV bolus on CBFv (Doppler flow wire) in patients undergoing coronary catheterization; assay type: in vivo, humans
Description: The purpose of this open label study was to determine the magnitude and duration of effect of CVT-3146 (10-500 μg) on CBFv in humans.
METHODS: Patients undergoing a clinically indicated coronary catheterization with no more than a 70% stenosis in any coronary artery and no more than a 50% stenosis of the study vessel had CBFv determined by Doppler flow wire. Study subject were selected after measuring baseline and peak CBFv after an intracoronary (IC) injection of 18 μg of Ado. Twenty-three patients, who were identified as meeting the study criteria of having a peak to baseline CBFv ratio of ≧2.5 in response to Adenosine, received a rapid (<10 sec) peripheral IV bolus of CVT-3146; Doppler signals were stable and interpretable over the time-course of the increase in CBFv in 17 patients.

[2] = system: myocardial ischemia detection (SPECT MPI); assay: Example 6: stress/rest SPECT myocardial perfusion imaging, CVT-3146 versus adenosine; assay type: in vivo, human; details: 400 mcg vs 500 mcg
Source text: Pharmacologic stress SPECT myocardial perfusion imaging (MPI) with adenosine (A) is a well-accepted technique, with excellent diagnostic and prognostic value and proven safety. However, side effects are common and AV nodal block and severe flushing are poorly tolerated. Agents such as CVT-3146 selectively act upon the A2A adenosine receptor and avoid stimulation of other receptor subtypes which may prevent such adverse reactions.
To determine the ability of CVT-3146 to produce coronary hyperemia and accurately detect CAD, 35 subjects (26 men, 9 women; 67±10 years) underwent both A and CVT-3146 stress/rest MPI, with 10.0±9.1 days between studies. […] CVT-3146 [400 mcg (n=18), 500 mcg (n=17)] was administered as an IV bolus immediately followed by a saline flush, and then a Tc-99m radiopharmaceutical [sestamibi (n=34), tetrofosmin (n=1)]. SPECT images were uniformly processed, intermixed with control studies (normal and fixed-only defects), and interpreted by three observers in a blinded fashion using a 17-segment model. Quantitative analysis was also performed using 4D MSPECT. In addition to three separate readings, a consensus interpretation was performed and then a direct, same-screen comparison of A and CVT-3146 images undertaken to determine relative differences, using 5 regions per study.

[3] = system: coronary blood flow velocity; assay: Example 2: dose-ranging study of CVT-3146 IV bolus as coronary vasodilator (coronary flow velocity, heart rate, blood pressure, adverse events); assay type: in vivo, human
Source text: This example is a study performed to determine the range of dosages over which the selective A2A receptor agonist, CVT-3146 can be administered and be effective as a coronary vasodilator.
The study included patients undergoing a clinically indicated coronary catheterization with no more than a 70% stenosis in any coronary artery and no more than a 50% stenosis of the study vessel had CBFv determined by Doppler flow wire. Study subject were selected after measuring baseline and peak CBFv after an intracoronary (IC) injection of 18 μg of Ado. 36 subjects were identified as meeting the study criteria of having a peak to baseline CBFv ration of ≧2.5 in response to Adenosine,
CVT-3146 was administered to the study subjects by IV bolus in less that 10 seconds in amounts ranging from 10 μg to 500 μg.
The effectiveness of both compounds was measured by monitoring coronary flow velocity. Other coronary parameters that were monitored included heart rate and blood pressure. These parameters were measured in order to evaluate the time to peak dose response, the magnitude of the dose response and the duration of the dose response. Adverse events were also monitored. Coronary blood flow velocity was measured at the left anterior descending coronary artery (LAD) or left circumflex coronary artery (LCx). The velocity measurements were taken by following standard heart catheterization techniques and inserting a 0.014 inch Doppler-tipped Flowire into the LAD or LCx vessel and thereafter monitoring blood flow velocity. In addition, hemodynamic and electrocardiographic measurements were recorded continuously.
Overall, 36 human subjects (n=36) were evaluated. Of the 36, 18 were female and 18 were male. Their mean age was 53.4 and they ranged from 24-72 years in age. Of the 36 subjects evaluated, the LAD vessel of 31 subjects was monitored, and the LCx vessel of 5 subjects was monitored. The following doses (μg) of CVT-3146 were given to the subjects in a single iv bolus: 10 (n=4); 30 (n=6); 100 (n=4); 300 (n=7); 400 (n=9); 500 (n=6).

[4] = system: blood flow velocity in LCX, BA, FA and PA; assay: Example 4: blood flow velocity (APV) in various vascular beds in the anesthetized dog; assay type: in vivo; details: 1.0 μg/kg iv bolus
Source text: CVT-3146 is a novel selective A2A adenosine receptor agonist being developed as a pharmacologic stressor for radionuclide myocardial perfusion imaging. […] The goal of this study was to determine the differential effects of CVT-3146 on blood flow velocity in various vascular beds.
The effects of CVT-3146 were quantified as the average peak blood flow velocity (APV) using intravascular Doppler transducer tipped catheter. Heart rate (HR) and systemic arterial blood pressure (BP) were also monitored.

[5] = Example 7: adverse effects and hemodynamic effects of CVT-3146 as pharmacologic stress agent in MPI protocol; assay type: in vivo, human
Source text: CVT-3146 is a selective A2A adenosine receptor agonist that produces coronary hyperemia and potentially less adverse effects due to its limited stimulation of receptor subtypes not involved with coronary vasodilation. This study evaluated the effectiveness of CVT-3146 as a pharmacologic stress agent.
36 subjects (27 men, 9 women; 67±10 years) were studied with two doses of CVT-3146 [400 mcg (n=18), 500 mcg (n=18)], administered as an IV bolus, as part of a pharmacologic stress myocardial perfusion imaging protocol.

[6] = 36 subjects, 400 or 500 mcg IV bolus

CNC(=O)c1cnn(-c2nc(N)c3ncn([C@@H]4O[C@H](CO)[C@@H](O)[C@H]4O)c3n2)c1 [CVT-3146, (1-{9-[(4S,2R,3R,5R)-3,4-dihydroxy-5-(hydroxymethyl)oxolan-2-yl]-6-aminopurin-2-yl}pyrazol-4-yl)-N-methylcarboxamide]
maximal decrease in systolic blood pressure (BP) ([1]; 500 μg (n=3)): 8.7±7.6
maximal increase in heart rate (HR) ([1]; 500 μg (n=3)): 18.7±4.0
adverse events (AEs) ([1]; 500 μg dose, 3 patients): No AEs were noted
adverse events (AEs) ([1]; 10-500 μg IV bolus): infrequent and included nausea, flushing, and headache; these were mild and self-limited
time at which increase in CBFv was near peak, post onset of bolus ([1]; IV bolus, humans): 30 to 40 s
dose-dependent effect on ischemia detection [2]: No dose-dependent effect
time of maximum decrease in diastolic BP after dosing ([3]; 400 μg IV bolus): about 1 minute
time of maximum decrease in systolic BP after dosing ([3]; 400 μg IV bolus): about 1 minute
time of maximum increase in heart rate after dosing ([3]; 400 μg IV bolus): about 1 minute
peak effects compared with adenosine ([3]; doses above about 100 μg): equivalent to 18 μg adenosine administered IC
decrease in BP [4]: 12 mmHg
time for effect on blood flow velocity to dissipate [4]: less than ten
transient increase in HR [4]: 16 bpm
incidence of adverse effects (AE) [5, 6]: 72%
patients with adverse effects (AE) [5, 6]: 26 pts
tolerability ([5]; 400 and 500 mcg IV bolus): well-tolerated and has acceptable hemodynamic effects
Diastolic BP, peak Absolute Change ([5]; 400 and 500 mcg, mean±S.D.): −5.4 ± 7.2 mmHg
Diastolic BP, peak Relative Change ([5]; 400 and 500 mcg, mean±S.D.): −7.9% ± 10.5%
Heart Rate, peak Absolute Change ([5]; 400 and 500 mcg, mean±S.D.): +21.9 ± 10.4 beats per min
Heart Rate, peak Relative Change ([5]; 400 and 500 mcg, mean±S.D.): +36.7% + 21.0%
Systolic BP, peak Absolute Change ([5]; 400 and 500 mcg, mean±S.D.): −5.9 ± 10.7 mmHg
Systolic BP, peak Relative Change ([5]; 400 and 500 mcg, mean±S.D.): −4.1% ± 7.6%
serious AE ([5]; both doses): One serious AE occurred, with exacerbation of a migraine headache
share of AEs mild to moderate ([5]; both doses): 96%
share of AEs resolved within 15 min without treatment ([5]; both doses): 91%
time of peak hemodynamic effect, heart rate (HR) ([5]; both doses): ≤ 0.033 h
time of peak hemodynamic effect, systolic blood pressure (BP) ([5]; both doses): 4 min
deviation of BP from baseline ([5]; thirty min after CVT-3146): < 2%
